From ChEMBL document CHEMBL1201862, “PubChem BioAssay data set” (2004)
The source made the active and inactive calls.

How the values were obtained:
[1] = target: T1, Histone-lysine N-methyltransferase NSD2 (Homo sapiens, UniProt O96028); type: biochemical
T1 sequence (O96028 whole entry): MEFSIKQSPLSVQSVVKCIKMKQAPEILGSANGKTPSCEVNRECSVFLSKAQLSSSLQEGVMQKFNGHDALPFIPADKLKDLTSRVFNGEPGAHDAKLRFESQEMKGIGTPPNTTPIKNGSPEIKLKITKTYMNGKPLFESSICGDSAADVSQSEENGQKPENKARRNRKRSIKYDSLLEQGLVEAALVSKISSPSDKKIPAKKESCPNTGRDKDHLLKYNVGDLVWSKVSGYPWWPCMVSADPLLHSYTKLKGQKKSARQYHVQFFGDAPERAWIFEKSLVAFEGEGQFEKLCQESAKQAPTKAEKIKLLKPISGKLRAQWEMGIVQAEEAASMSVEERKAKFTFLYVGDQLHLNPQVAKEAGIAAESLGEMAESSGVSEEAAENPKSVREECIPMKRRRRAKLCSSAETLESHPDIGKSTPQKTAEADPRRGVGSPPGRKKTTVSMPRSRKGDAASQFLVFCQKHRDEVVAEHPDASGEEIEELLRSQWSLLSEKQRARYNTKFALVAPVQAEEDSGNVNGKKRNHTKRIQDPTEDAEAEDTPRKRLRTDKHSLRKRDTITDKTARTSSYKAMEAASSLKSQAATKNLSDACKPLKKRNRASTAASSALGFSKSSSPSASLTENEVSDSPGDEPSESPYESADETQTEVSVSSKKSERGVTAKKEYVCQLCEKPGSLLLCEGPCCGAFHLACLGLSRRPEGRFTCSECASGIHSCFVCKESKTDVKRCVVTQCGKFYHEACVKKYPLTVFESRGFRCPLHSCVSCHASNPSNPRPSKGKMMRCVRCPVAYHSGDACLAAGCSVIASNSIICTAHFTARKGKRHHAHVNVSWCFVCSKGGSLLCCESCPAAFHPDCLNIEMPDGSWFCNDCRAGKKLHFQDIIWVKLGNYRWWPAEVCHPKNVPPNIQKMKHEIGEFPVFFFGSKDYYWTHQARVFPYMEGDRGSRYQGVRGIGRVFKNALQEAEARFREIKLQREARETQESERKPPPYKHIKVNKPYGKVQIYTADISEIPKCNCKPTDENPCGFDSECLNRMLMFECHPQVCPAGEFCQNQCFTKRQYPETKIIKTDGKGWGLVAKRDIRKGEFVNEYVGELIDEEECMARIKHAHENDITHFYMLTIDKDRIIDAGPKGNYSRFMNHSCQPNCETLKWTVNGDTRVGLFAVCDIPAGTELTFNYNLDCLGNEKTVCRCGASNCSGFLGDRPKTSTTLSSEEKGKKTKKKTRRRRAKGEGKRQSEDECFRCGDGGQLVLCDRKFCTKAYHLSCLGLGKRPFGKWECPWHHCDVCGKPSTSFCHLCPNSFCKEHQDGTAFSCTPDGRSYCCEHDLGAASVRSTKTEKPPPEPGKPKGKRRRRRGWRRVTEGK

[2] = target: Serine/threonine-protein kinase PAK 1 (Homo sapiens, UniProt Q13153); type: functional
[3] = target: MAP kinase-activated protein kinase 2 (Homo sapiens, UniProt P49137); type: functional;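 further: measured as one member of a kinome-wide kinase panel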
[4] = target: Mast/stem cell growth factor receptor Kit (Homo sapiens, UniProt P10721); type: functional;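 further: KIT entry within a kinase panel assay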
[5] = target: Casein kinase I isoform gamma-1 (Homo sapiens, UniProt Q9HCP0); type: functional;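 further: measured as the CSNK1G1 member of a kinome profiling panel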
[6] = target: Fibroblast growth factor receptor 3 (Homo sapiens, UniProt P22607); type: functional
[7] = target: Homeodomain-interacting protein kinase 4 (Homo sapiens, UniProt Q8NE63); type: functional
[8] = target: Maternal embryonic leucine zipper kinase (Homo sapiens, UniProt Q14680); type: functional
[9] = target: Tyrosine-protein kinase ITK/TSK (Homo sapiens, UniProt Q08881); type: functional;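 further: affinity for ITK measured as one member of a broad kinase panel profiling binding across the kinome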
[10] = target: Protein kinase C iota type (Homo sapiens, UniProt P41743); type: functional;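 further: measured within a kinome-wide kinase panel, PRKCI as panel member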
[11] = target: Interleukin-1 receptor-associated kinase 1 (Homo sapiens, UniProt P51617); type: functional;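 further: IRAK1 tested as one member of a kinome panel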
Ephrin type-A receptor 2 = Ephrin type-A receptor 2 (Homo sapiens, UniProt P29317); type: functional;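 further: EPHA2 tested as one member of a kinome-wide kinase panel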
[12] = target: Dual specificity tyrosine-phosphorylation-regulated kinase 3 (Homo sapiens, UniProt O43781); type: functional;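 further: measured as one member of a broad kinase panel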
[13] = target: Dual specificity protein kinase CLK4 (Homo sapiens, UniProt Q9HAZ1); type: functional

Interleukin-1 receptor-associated kinase 1, sequence (P51617 whole entry): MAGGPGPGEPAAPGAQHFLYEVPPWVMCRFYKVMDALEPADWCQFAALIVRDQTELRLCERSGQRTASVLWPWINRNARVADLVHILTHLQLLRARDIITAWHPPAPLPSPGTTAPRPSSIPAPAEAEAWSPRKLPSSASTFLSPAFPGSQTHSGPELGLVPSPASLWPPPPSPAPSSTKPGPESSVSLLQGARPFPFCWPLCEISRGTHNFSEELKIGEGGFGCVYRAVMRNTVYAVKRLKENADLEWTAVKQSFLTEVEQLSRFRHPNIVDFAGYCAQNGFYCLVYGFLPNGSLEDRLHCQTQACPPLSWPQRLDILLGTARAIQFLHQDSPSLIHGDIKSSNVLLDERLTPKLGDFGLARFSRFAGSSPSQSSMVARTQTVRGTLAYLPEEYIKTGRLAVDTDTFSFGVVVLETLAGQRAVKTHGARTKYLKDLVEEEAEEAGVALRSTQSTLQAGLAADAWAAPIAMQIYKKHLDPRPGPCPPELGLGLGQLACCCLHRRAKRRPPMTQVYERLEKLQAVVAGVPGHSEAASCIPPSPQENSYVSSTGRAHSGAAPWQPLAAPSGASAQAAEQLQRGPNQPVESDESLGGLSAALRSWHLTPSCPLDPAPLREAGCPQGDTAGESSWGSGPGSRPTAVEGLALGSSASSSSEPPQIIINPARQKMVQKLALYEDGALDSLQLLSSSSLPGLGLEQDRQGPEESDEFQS
Casein kinase I isoform gamma-1, sequence (Q9HCP0 whole entry, canonical isoform): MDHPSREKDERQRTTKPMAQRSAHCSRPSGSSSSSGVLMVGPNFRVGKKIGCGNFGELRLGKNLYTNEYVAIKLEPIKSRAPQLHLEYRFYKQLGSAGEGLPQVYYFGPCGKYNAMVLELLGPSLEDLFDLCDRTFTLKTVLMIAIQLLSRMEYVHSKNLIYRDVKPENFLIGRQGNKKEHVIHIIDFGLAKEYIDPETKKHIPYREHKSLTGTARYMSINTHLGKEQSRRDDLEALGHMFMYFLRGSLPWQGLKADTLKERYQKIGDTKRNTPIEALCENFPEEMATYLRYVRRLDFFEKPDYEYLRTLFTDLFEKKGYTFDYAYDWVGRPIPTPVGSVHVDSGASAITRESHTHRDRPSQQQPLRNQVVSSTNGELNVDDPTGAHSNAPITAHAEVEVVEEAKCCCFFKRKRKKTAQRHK
Tyrosine-protein kinase ITK/TSK, sequence (Q08881 whole entry): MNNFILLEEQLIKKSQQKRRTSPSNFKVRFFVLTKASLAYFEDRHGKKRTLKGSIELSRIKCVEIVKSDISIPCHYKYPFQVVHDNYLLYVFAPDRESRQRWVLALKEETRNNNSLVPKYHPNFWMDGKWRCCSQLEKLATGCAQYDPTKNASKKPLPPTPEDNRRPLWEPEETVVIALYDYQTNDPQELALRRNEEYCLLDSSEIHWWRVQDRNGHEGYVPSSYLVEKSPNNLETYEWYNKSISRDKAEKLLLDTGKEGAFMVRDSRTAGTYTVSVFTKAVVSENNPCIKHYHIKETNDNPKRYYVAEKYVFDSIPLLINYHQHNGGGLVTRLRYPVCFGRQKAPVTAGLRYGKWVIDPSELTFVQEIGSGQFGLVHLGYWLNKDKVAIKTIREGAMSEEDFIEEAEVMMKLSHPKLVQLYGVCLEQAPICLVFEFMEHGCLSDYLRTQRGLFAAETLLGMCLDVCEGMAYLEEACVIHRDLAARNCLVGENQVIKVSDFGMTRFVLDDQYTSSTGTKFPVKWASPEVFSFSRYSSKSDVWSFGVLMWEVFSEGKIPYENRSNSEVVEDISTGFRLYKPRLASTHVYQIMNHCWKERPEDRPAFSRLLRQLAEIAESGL
Serine/threonine-protein kinase PAK 1, sequence (Q13153 whole entry): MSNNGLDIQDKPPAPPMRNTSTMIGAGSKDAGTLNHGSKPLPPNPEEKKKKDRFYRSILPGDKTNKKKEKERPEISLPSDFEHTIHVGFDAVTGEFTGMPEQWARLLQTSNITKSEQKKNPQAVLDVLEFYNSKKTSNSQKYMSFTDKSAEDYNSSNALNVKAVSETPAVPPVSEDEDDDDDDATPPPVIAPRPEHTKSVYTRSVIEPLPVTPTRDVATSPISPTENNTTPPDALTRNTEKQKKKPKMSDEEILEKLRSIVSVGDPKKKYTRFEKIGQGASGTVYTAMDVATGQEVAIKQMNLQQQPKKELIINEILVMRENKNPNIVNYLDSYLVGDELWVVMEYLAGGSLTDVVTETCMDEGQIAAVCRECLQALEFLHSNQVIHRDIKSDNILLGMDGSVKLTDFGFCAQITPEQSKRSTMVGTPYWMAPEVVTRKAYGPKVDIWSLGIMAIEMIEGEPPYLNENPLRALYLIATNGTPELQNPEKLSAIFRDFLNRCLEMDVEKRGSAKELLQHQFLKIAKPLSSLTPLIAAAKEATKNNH
Dual specificity tyrosine-phosphorylation-regulated kinase 3, sequence (O43781 whole entry): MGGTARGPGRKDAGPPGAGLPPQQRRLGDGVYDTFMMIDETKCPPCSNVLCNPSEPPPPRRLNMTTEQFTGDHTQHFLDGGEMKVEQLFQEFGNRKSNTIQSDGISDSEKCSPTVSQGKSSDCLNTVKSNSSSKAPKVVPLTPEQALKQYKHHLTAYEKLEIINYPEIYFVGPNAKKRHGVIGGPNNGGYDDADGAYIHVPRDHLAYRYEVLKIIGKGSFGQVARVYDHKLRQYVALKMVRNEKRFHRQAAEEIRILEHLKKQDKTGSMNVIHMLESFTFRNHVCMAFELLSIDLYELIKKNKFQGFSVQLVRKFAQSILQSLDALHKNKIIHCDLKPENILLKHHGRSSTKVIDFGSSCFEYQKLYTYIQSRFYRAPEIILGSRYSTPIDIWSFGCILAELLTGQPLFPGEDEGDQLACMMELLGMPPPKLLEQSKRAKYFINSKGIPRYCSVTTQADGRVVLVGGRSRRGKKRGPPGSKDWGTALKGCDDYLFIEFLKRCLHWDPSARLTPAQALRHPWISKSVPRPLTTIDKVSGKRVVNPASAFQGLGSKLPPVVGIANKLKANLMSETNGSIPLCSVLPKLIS
Homeodomain-interacting protein kinase 4, sequence (Q8NE63 whole entry): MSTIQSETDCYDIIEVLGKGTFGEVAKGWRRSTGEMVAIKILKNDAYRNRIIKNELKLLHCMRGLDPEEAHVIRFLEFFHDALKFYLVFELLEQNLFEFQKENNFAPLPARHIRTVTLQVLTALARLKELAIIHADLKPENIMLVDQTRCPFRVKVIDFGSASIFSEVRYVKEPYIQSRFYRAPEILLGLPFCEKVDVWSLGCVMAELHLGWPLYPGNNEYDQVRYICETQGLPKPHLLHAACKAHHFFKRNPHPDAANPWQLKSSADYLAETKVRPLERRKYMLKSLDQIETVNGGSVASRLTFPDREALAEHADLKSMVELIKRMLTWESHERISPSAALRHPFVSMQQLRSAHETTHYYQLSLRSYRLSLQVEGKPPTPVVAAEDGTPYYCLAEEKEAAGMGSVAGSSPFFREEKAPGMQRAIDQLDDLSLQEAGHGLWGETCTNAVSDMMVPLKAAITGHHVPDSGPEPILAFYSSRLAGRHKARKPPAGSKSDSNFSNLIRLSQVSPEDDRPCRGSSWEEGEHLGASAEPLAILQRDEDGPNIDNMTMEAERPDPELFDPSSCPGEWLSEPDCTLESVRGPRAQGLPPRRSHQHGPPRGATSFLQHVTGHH
MAP kinase-activated protein kinase 2, sequence (P49137 whole entry): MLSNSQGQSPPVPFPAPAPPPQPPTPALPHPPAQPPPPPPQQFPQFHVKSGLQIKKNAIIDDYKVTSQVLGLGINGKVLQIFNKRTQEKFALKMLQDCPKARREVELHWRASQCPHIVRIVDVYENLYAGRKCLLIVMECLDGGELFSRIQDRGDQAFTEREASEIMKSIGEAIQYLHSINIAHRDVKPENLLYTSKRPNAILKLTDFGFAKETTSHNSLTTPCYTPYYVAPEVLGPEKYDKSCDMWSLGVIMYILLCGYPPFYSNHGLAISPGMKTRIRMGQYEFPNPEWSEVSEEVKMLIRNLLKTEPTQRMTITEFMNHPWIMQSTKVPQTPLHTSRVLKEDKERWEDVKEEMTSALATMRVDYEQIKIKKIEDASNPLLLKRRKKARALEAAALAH
Maternal embryonic leucine zipper kinase, sequence (Q14680 whole entry): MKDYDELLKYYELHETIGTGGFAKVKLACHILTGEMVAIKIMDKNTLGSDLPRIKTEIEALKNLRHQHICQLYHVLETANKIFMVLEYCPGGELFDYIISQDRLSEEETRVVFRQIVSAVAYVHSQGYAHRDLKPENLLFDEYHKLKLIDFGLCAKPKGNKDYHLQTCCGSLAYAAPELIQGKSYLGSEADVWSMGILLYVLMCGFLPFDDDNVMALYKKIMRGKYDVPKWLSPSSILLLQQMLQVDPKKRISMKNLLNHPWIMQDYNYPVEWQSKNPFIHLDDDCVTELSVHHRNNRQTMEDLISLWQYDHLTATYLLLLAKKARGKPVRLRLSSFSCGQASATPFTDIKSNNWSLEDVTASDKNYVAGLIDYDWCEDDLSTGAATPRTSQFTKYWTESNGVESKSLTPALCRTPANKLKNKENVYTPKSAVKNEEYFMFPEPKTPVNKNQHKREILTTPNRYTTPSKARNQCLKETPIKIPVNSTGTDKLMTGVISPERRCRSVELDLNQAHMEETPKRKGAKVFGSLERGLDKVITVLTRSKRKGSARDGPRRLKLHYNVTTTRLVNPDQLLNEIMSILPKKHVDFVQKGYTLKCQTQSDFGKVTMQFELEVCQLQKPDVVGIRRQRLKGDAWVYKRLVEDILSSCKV

## CCN(CC)CCCC(C)n1c2nc(=O)[nH]c(=O)c-2nc2cc(Cl)ccc21 (stereo not drawn)
[1]
  AC50: 1180 nM (active)

## OC1CCC(Nc2nc(Cl)cc(-c3c[nH]c4ncccc34)n2)CC1 (stereo not drawn)
[2]
  Ki: 1260 nM (active)
  pKi: 5.9
[3]
  Ki: 3980 nM (active)
  pKi: 5.4
[4]
  Ki: > 1260 nM (inactive)
[5]
  Ki: 316 nM (active)
  pKi: 6.5
[6]
  Ki: > 2000 nM (inactive)
[7]
  Ki: 398 nM (active)
  pKi: 6.4
[8]
  Ki: 5.01 nM (active)
  pKi: 8.3
[9]
  Ki: 398 nM (active)
  pKi: 6.4
[10]
  Ki: 2510 nM (active)
  pKi: 5.6
[11]
  Ki: 79.4 nM (active)
  pKi: 7.1
Ephrin type-A receptor 2
  Ki: > 3160 nM (inactive)
[12]
  Ki: 5.01 nM (active)
  pKi: 8.3

## COc1cccc(CNC(=O)c2cnc(-c3ccncc3)nc2)c1
[13]
  Ki: > 2510 nM (inactive)
